Data taken from patent US20240390369A1, “METHODS FOR DETERMINING RESPONSIVENESS TO TYK2 INHIBITORS” (Bristol-Myers Squibb Company, priority 2021, published 2024).

Test system: patients with psoriatic arthritis
Test: Phase 2 trial in psoriatic arthritis: ACR20 response at week 16
Type: in vivo, human
Settings: for ACR20 response rate over time: placebo, sixteen-week treatment period; for Odds Ratio, ACR20 response status / Odds Ratio for ACR20 response: All patients
Procedure: In a double-blind Phase 2 trial, 203 patients with psoriatic arthritis were randomized into three groups: deucravacitinib 6 mg once daily (N=70), deucravacitinib 12 mg once daily (N=67), or placebo (N=66). All subjects had active psoriatic arthritis according to the Classification Criteria for Psoriatic Arthritis (CASPAR); for active disease, these criteria required ≥3 tender joint count, ≥3 swollen joint count, and a C-reactive protein level above 3 mg/L. Other inclusion criteria included the following: presence of at least one plaque psoriasis lesion, and prior treatment failure with a non-biologic disease modifying anti-rheumatic drug, a non-steroidal anti-inflammatory drug, or a steroid. With respect to treatment history, approximately 70% of subjects had not received prior treatment with a biologic and were biologic naïve, while up to 30% of subjects had failed or had been intolerant to one TNF-inhibitor (TNF=Tumor necrosis factor, also known as TNFα). Randomization was stratified by prior TNF-inhibitor use (experienced/naïve) and body weight (<90 kg and ≥90 kg).
Clinical measures included the Psoriasis […] (PASI) score for skin psoriasis, American College of Rheumatology 20 (ACR20) response, Psoriatic Arthritis Disease Activity Score (PASDAS), Health Assessment Questionnaire-Disability Index (HAQ-DI), and Disease Activity Score 28 CRP (DAS28). To evaluate the predictive value of different protein measurements for the clinical response to deucravacitinib, baseline protein concentrations for responders and non-responders, as defined by ACR20 or PASI75 at week 16, were compared for each arm (placebo, 6 mg deucravacitinib once-daily, and 12 mg deucravacitinib once-daily).
Boxplots for baseline protein level by response were generated with a horizontal line indicating the median protein level at baseline. For each treatment arm, a two-sample t-test was performed to test whether mean baseline serum protein level was different in responders versus non-responders. A Wilcoxon rank sum test (Mann-Whitney U test) was also performed to evaluate the difference in median serum protein level between responders and non-responders. Further, barplots of ACR20 and PASI75 response rate at week 16 for each treatment arm were generated for all subjects (protein level high and protein level low subjects, dichotomized according to median baseline level). Line plots of ACR20 and PASI75 response rate over time for each treatment arm were generated for protein level high and protein level low groups. Logistic regression models were also fit to evaluate associations between baseline protein levels and clinical outcome.
For certain analyses described herein, patients were dichotomized by median values (e.g., of the proteins listed above or other measures) into “high” and “low” groups, such that the high group had values above the median and the low group had values less than or equal to the median.
In addition, logistic regression models were fit for response measures ACR20 and PASI75, to generate the odds ratio of each of the deucravacitinib treatment arms versus placebo, in BD2-high and BD2-low groups. The following logistic regression models were used: • For ACR20 response status: ACR20 (Y/N)=treatment arm+BD2 group+treatment arm*BD2 group+TNF-inhibitor use+baseline weight (continuous). • For PASI75 response status: PASI75 (Y/N)=treatment arm+BD2 group+treatment arm*BD2 group+TNF-inhibitor use+baseline weight (continuous). […] FIGS. 26-31 are forest plots summarizing the logistic regression results of these models (for BD2 and other biomarkers described herein); each “N,” for “Placebo” and “Deucrava,” represents the number of responders in that group. […]

[1] = 6 mg QD, Above median baseline CRP level
[2] = 6 mg QD, Below median baseline CRP level
[3] = 12 mg QD, Above median baseline CRP level
[4] = 12 mg QD, Below median baseline CRP level

`[2H]C([2H])([2H])NC(=O)c1nnc(NC(=O)C2CC2)cc1Nc1cccc(-c2ncn(C)n2)c1OC` [deucravacitinib, 6-(cyclopropanecarboxamido)-4-((2-methoxy-3-(1-methyl-1H-1,2,4-triazol-3-yl)phenyl)amino)-N-(methyl-d3)pyridazine-3-carboxamide] was tested, and the “Interaction Term for ACR20 response (ratio of odds ratios)” value (6 mg QD vs placebo: BD2 high versus BD2 low, week 16) was 3.16, the “Interaction Term: treatment arm*CRP group, ACR20” value (6 mg QD vs placebo: CRP high versus CRP low) was 0.786 and the “Interaction Term: treatment arm*CRP group, ACR20” value (6 mg QD vs placebo: CRP-high versus CRP-low, adjusted for baseline DAS28) was 0.788. For the same molecule, the “Interaction Term for ACR20 response (ratio of odds ratios)” value (6 mg QD vs placebo: IL-17A high versus IL-17A low, week 16) was 3.10, the “Interaction Term for ACR20 response (ratio of odds ratios)” value (6 mg QD vs placebo: IL-19 high versus IL-19 low, week 16) was 3.33 and the “ACR20 response rate over time” value (6 mg QD, 12 mg QD, BD2-high and BD2-low groups (FIG. 10)) was “higher ACR20 response rates to deucravacitinib over time, compared to the response rate in the placebo arm, were observed in the BD2-high group but not in the BD2-low group”. The “ACR20 response rate over time” value (6 mg QD, 12 mg QD, CRP-high and CRP-low groups (FIG. 41)) was “higher response rates than the placebo arm”, the “ACR20 response rate over time” value (6 mg QD, 12 mg QD, IL-17A-high and IL-17A-low groups (FIG. 24)) was “higher ACR20 response rates over time were observed in the deucravacitinib treatment arms compared to placebo in IL-17A-high but not in IL-17A-low groups” and the “ACR20 response rate over time” value (6 mg QD, 12 mg QD, IL-19-high and IL-19-low groups (FIG. 17)) was “higher ACR20 response rates to deucravacitinib over time compared to placebo were observed in IL-19-high but not in IL-19-low groups”. The Number of subjects (6 mg QD, ACR20 non-responder at week 16, above median baseline BD2 level) was 20, the Number of subjects (6 mg QD, ACR20 non-responder at week 16, above median baseline IL-17A level) was 14 and the Number of subjects (6 mg QD, ACR20 non-responder at week 16, above median baseline IL-19 level) was 17. For the same molecule, the Number of subjects (6 mg QD, ACR20 non-responder at week 16, below median baseline BD2 level) was 14, the Number of subjects (6 mg QD, ACR20 non-responder at week 16, below median baseline IL-17A level) was 19 and the Number of subjects (6 mg QD, ACR20 non-responder at week 16, below median baseline IL-19 level) was 16. It also gave a Number of subjects (6 mg QD, ACR20 responder at week 16, above median baseline IL-17A level) of 21, a Number of subjects (6 mg QD, ACR20 responder at week 16, above median baseline IL-19 level) of 21 and a Number of subjects (6 mg QD, ACR20 responder at week 16, below median baseline BD2 level) of 7. For the same molecule, the Number of subjects (6 mg QD, ACR20 responder at week 16, below median baseline IL-17A level) was 16, the Number of subjects (6 mg QD, ACR20 responder at week 16, below median baseline IL-19 level) was 16 and the “Number of subjects, ACR20 Non-responder at week 16” value [1] was 17. The “Number of subjects, ACR20 Responder at week 16” value [1] was 19, the “Number of subjects, ACR20 Non-responder at week 16” value [2] was 16 and the “Number of subjects, ACR20 Responder at week 16” value [2] was 18. For the same molecule, the “Interaction Term for ACR20 response (ratio of odds ratios)” value (12 mg QD vs placebo: BD2 high versus BD2 low, week 16) was 3.40, the “Interaction Term: treatment arm*CRP group, ACR20” value (12 mg QD vs placebo: CRP high versus CRP low) was 1.921 and the “Interaction Term: treatment arm*CRP group, ACR20” value (12 mg QD vs placebo: CRP-high versus CRP-low, adjusted for baseline DAS28) was 1.930. The “Interaction Term for ACR20 response (ratio of odds ratios)” value (12 mg QD vs placebo: IL-17A high versus IL-17A low, week 16) was 2.78, the “Interaction Term for ACR20 response (ratio of odds ratios)” value (12 mg QD vs placebo: IL-19 high versus IL-19 low, week 16) was 7.35 and the Number of subjects (12 mg QD, ACR20 non-responder at week 16, above median baseline BD2 level) was 10. The Number of subjects (12 mg QD, ACR20 non-responder at week 16, above median baseline IL-19 level) was 7, the Number of subjects (12 mg QD, ACR20 non-responder at week 16, below median baseline BD2 level) was 11 and the Number of subjects (12 mg QD, ACR20 non-responder at week 16, below median baseline IL-17A level) was 15. For the same molecule, the Number of subjects (12 mg QD, ACR20 non-responder at week 16, below median baseline IL-19 level) was 17, the Number of subjects (12 mg QD, ACR20 responder at week 16, above median baseline BD2 level) was 20 and the Number of subjects (12 mg QD, ACR20 responder at week 16, above median baseline IL-19 level) was 21. For the same molecule, the Number of subjects (12 mg QD, ACR20 responder at week 16, below median baseline BD2 level) was 10, the Number of subjects (12 mg QD, ACR20 responder at week 16, below median baseline IL-19 level) was 20 and the “Number of subjects, ACR20 Non-responder at week 16” value [3] was 9. For the same molecule, the “Number of subjects, ACR20 Responder at week 16” value [3] was 24, the “Number of subjects, ACR20 Non-responder at week 16” value [4] was 16 and the “Number of subjects, ACR20 Responder at week 16” value [4] was 18. The “Odds Ratio, ACR20 response status” value (6 mg QD vs placebo, not adjusted for baseline disease activity) was 2.456, the “Odds Ratio for ACR20 response” value (6 mg QD vs placebo, week 16) was 2.46 and the “Odds Ratio, ACR20 response status” value (6 mg QD vs placebo, week 16, adjusted for baseline DAS28) was 2.443. For the same molecule, the “Odds Ratio, ACR20 response status” value (12 mg QD vs placebo, not adjusted for baseline disease activity) was 3.609, the “Odds Ratio for ACR20 response” value (12 mg QD vs placebo, week 16) was 3.61 and the “Odds Ratio, ACR20 response status” value (12 mg QD vs placebo, week 16, adjusted for baseline DAS28) was 3.618. The “Odds Ratio for ACR20 response” value (deucravacitinib treatment arms combined vs placebo, week 16) was 2.961 and the “Odds Ratio, ACR20 response status” value (treatment arms combined vs placebo) was 2.961.
